Laboratory results: patent US8952024B2, “Herbicidal pyrimidone derivatives” (E I du Pont de Nemours and Company, priority 2009, dated 2015)

Tests used:
Type in all cases: in vivo
[1] = system: barnyardgrass (Echinochloa crus-galli); assay: Test A pre-/postemergence plant response; settings: for Barnyardgrass plant response rating: visual injury, 0 to 100 scale (0 no effect, 100 complete control), approx. ten days
Excerpt: (§1) Seeds of barnyardgrass (Echinochloa crus-galli), large crabgrass (Digitaria sanguinalis), giant foxtail (Setaria faberii), morningglory (Ipomoea spp.), pigweed (Amaranthus retroflexus), velvetleaf (Abutilon theophrasti), wheat (Triticum aestivum) and corn (Zea mays) were planted into a blend of loam soil and sand and treated preemergence with a directed soil spray using test chemicals formulated in a non-phytotoxic solvent mixture which included a surfactant. At the same time these species were also treated with postemergence applications of test compounds formulated in the same manner.
(§2) Plants ranged in height from two to ten cm and were in the one- to two-leaf stage for the postemergence treatment. Treated plants and untreated controls were maintained in a greenhouse for approximately ten days, after which time all treated plants were compared to untreated controls and visually evaluated for injury. Plant response ratings, summarized in Table A, are based on a 0 to 100 scale where 0 is no effect and 100 is complete control. A dash (-) response means no test result.

[2] = system: corn (Zea mays); assay: Test A pre-/postemergence plant response; settings: for Corn plant response rating: visual injury, 0 to 100 scale (0 no effect, 100 complete control), approx. ten days
Excerpt: as §1, §2

[3] = system: giant foxtail (Setaria faberii); assay: Test A pre-/postemergence plant response
Excerpt: as §1, §2

[4] = system: large crabgrass (Digitaria sanguinalis); assay: Test A pre-/postemergence plant response; settings: for Crabgrass, Large plant response rating: visual injury, 0 to 100 scale (0 no effect, 100 complete control), approx. ten days
Excerpt: as §1, §2

[5] = system: morningglory (Ipomoea spp.); assay: Test A pre-/postemergence plant response
Excerpt: as §1, §2

[6] = system: pigweed (Amaranthus retroflexus); assay: Test A pre-/postemergence plant response
Excerpt: as §1, §2

[7] = system: velvetleaf (Abutilon theophrasti); assay: Test A pre-/postemergence plant response
Excerpt: as §1, §2

[8] = system: wheat (Triticum aestivum); assay: Test A pre-/postemergence plant response
Excerpt: as §1, §2

[9] = system: barnyardgrass (Echinochloa crus-galli); assay: Test B flooded paddy test; settings: for Plant response rating, Flood, Barnyardgrass: 250 g ai/ha, flooded paddy test, visual rating on 0 to 100 scale (0 no effect, 100 complete control) after 13 to 15 days; for Plant response rating, Barnyardgrass: Flood (flooded paddy test), 13 to 15 days; for Barnyardgrass plant response rating: Flood, 31 g ai/ha, scale 0 to 100 (0 no effect, 100 complete control)
Procedure, shortened: (§3)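 Seedlings reaching 2 leaves are flooded 3 cm deep; test material is delivered to that water, which stays at the same depth. Plants remain in a greenhouse 13–15 days and are then scored by eye versus controls from 0 to 100.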

[10] = system: ducksalad (Heteranthera limosa); assay: Test B flooded paddy test; settings: for Plant response rating, Flood, Ducksalad: 250 g ai/ha, flooded paddy test, visual rating on 0 to 100 scale (0 no effect, 100 complete control) after 13 to 15 days; for Plant response rating, Ducksalad: Flood (flooded paddy test), 13 to 15 days; for Ducksalad plant response rating: Flood, 31 g ai/ha, scale 0 to 100 (0 no effect, 100 complete control)
Procedure, shortened: as §3

[11] = system: rice (Oryza sativa); assay: Test B flooded paddy test; settings: for Plant response rating, Flood, Rice: 250 g ai/ha, flooded paddy test, visual rating on 0 to 100 scale (0 no effect, 100 complete control) after 13 to 15 days; for Plant response rating, Rice: Flood (flooded paddy test), 13 to 15 days; for Rice plant response rating: Flood, 31 g ai/ha, scale 0 to 100 (0 no effect, 100 complete control)
Procedure, shortened: as §3

[12] = system: umbrella sedge (Cyperus difformis); assay: Test B flooded paddy test; settings: for Plant response rating, Flood, Sedge, Umbrella: 250 g ai/ha, flooded paddy test, visual rating on 0 to 100 scale (0 no effect, 100 complete control) after 13 to 15 days; for Plant response rating, Sedge, Umbrella: Flood (flooded paddy test), 13 to 15 days; for Sedge, Umbrella plant response rating: Flood, 31 g ai/ha, scale 0 to 100 (0 no effect, 100 complete control)
Procedure, shortened: as §3

[13] = Postemergence, 125 g ai/ha, 0 to 100 scale where 0 is no effect and 100 is complete control
[14] = Preemergence, 125 g ai/ha, 0 to 100 scale, 0 = no effect, 100 = complete control
[15] = Preemergence, 500 g ai/ha, 0 to 100 scale, 0 = no effect, 100 = complete control
[16] = Postemergence, 500 g ai/ha, visual injury, 0 to 100 scale (0 no effect, 100 complete control), approx. ten days
[17] = 62 g ai/ha, scale of 0 to 100 where 0 is no effect and 100 is complete control
[18] = 125 g ai/ha, scale 0 to 100, 0 is no effect, 100 is complete control
[19] = Preemergence, 125 g ai/ha, 0 to 100 scale where 0 is no effect and 100 is complete control, approximately ten days
[20] = Postemergence, 125 g ai/ha, visual injury, 0 to 100 scale (0 no effect, 100 complete control), approx. ten days

Cc1ccc(Cl)cc1-n1c(-c2cc(F)cc(F)c2)ncc(C(=O)C2=C(O)CCCC2=O)c1=O [Compound 179]
Plant response rating, Barnyardgrass [1, 13]: 60
Barnyardgrass plant response rating ([1]; Postemergence, 500 g ai/ha): 90
Plant response rating, Barnyardgrass [1, 14]: 0
Plant response rating, Barnyardgrass [1, 15]: 70
Plant response rating, Corn [2, 13]: 10
Corn plant response rating ([2]; Postemergence, 500 g ai/ha): 80
Plant response rating, Corn [2, 14]: 0
Plant response rating, Corn [2, 15]: 0
Plant response rating, Foxtail, Giant [3, 13]: 40
Foxtail, Giant plant response rating [3, 16]: 90
Plant response rating, Foxtail, Giant [3, 14]: 10
Plant response rating, Foxtail, Giant [3, 15]: 90
Plant response rating, Crabgrass, Large [4, 13]: 60
Crabgrass, Large plant response rating ([4]; Postemergence, 500 g ai/ha): 100
Plant response rating, Crabgrass, Large [4, 14]: 20
Plant response rating, Crabgrass, Large [4, 15]: 100
Plant response rating, Morningglory [5, 13]: 60
Morningglory plant response rating [5, 16]: 100
Plant response rating, Morningglory [5, 14]: 0
Plant response rating, Morningglory [5, 15]: 40
Plant response rating, Pigweed [6, 13]: 90
Pigweed plant response rating [6, 16]: 100
Plant response rating, Pigweed [6, 14]: 50
Plant response rating, Pigweed [6, 15]: 90
Plant response rating, Velvetleaf [7, 13]: 100
Velvetleaf plant response rating [7, 16]: 100
Plant response rating, Velvetleaf [7, 14]: 50
Plant response rating, Velvetleaf [7, 15]: 100
Plant response rating, Wheat [8, 13]: 40
Wheat plant response rating [8, 16]: 80
Plant response rating, Wheat [8, 14]: 0
Plant response rating, Wheat [8, 15]: 60
Plant response rating, Flood, Barnyardgrass [9]: 30
Plant response rating, Barnyardgrass [9, 17]: 10
Plant response rating, Barnyardgrass [9, 18]: 20
Barnyardgrass plant response rating [9]: 0
Plant response rating, Flood, Ducksalad [10]: 100
Plant response rating, Ducksalad [10, 17]: 90
Plant response rating, Ducksalad [10, 18]: 95
Ducksalad plant response rating [10]: 90
Plant response rating, Flood, Rice [11]: 65
Plant response rating, Rice [11, 17]: 0
Plant response rating, Rice [11, 18]: 25
Rice plant response rating [11]: 0
Plant response rating, Flood, Sedge, Umbrella [12]: 95
Plant response rating, Sedge, Umbrella [12, 17]: 80
Plant response rating, Sedge, Umbrella [12, 18]: 85
Sedge, Umbrella plant response rating [12]: 40

COc1ccc(-n2c(-c3ccccc3)ncc(C(=O)C3=C(O)CCCC3=O)c2=O)c(OC)c1 [Compound 256]
Plant response rating, Barnyardgrass [1, 13]: 40
Barnyardgrass plant response rating ([1]; Postemergence, 500 g ai/ha): 90
Plant response rating, Barnyardgrass [1, 19]: 0
Plant response rating, Barnyardgrass [1, 15]: 70
Plant response rating, Corn [2, 13]: 0
Corn plant response rating ([2]; Postemergence, 500 g ai/ha): 10
Plant response rating, Corn [2, 19]: 0
Plant response rating, Corn [2, 15]: 0
Plant response rating, Foxtail, Giant [3, 20]: 20
Foxtail, Giant plant response rating [3, 16]: 70
Plant response rating, Foxtail, Giant [3, 19]: 0
Plant response rating, Foxtail, Giant [3, 15]: 30
Plant response rating, Crabgrass, Large [4, 13]: 30
Crabgrass, Large plant response rating ([4]; Postemergence, 500 g ai/ha): 80
Plant response rating, Crabgrass, Large [4, 19]: 10
Plant response rating, Crabgrass, Large [4, 15]: 80
Plant response rating, Morningglory [5, 20]: 30
Morningglory plant response rating [5, 16]: 80
Plant response rating, Morningglory [5, 19]: 0
Plant response rating, Morningglory [5, 15]: 50
Plant response rating, Pigweed [6, 20]: 90
Pigweed plant response rating [6, 16]: 100
Plant response rating, Pigweed [6, 19]: 0
Plant response rating, Pigweed [6, 15]: 90
Plant response rating, Velvetleaf [7, 20]: 100
Velvetleaf plant response rating [7, 16]: 100
Plant response rating, Velvetleaf [7, 19]: 20
Plant response rating, Velvetleaf [7, 15]: 80
Plant response rating, Wheat [8, 20]: 0
Wheat plant response rating [8, 16]: 0
Plant response rating, Wheat [8, 19]: 0
Plant response rating, Wheat [8, 15]: 0
Plant response rating, Flood, Barnyardgrass [9]: 0
Plant response rating, Barnyardgrass [9, 17]: 0
Plant response rating, Barnyardgrass [9, 18]: 0
Barnyardgrass plant response rating [9]: 0
Plant response rating, Flood, Ducksalad [10]: 85
Plant response rating, Ducksalad [10, 17]: 40
Plant response rating, Ducksalad [10, 18]: 80
Ducksalad plant response rating [10]: 30
Plant response rating, Flood, Rice [11]: 0
Plant response rating, Rice [11, 17]: 0
Plant response rating, Rice [11, 18]: 0
Rice plant response rating [11]: 0
Plant response rating, Flood, Sedge, Umbrella [12]: 75
Plant response rating, Sedge, Umbrella [12, 17]: 40
Plant response rating, Sedge, Umbrella [12, 18]: 75
Sedge, Umbrella plant response rating [12]: 30
